Measurements taken from the NIST ThermoML archive (doi:10.1016/j.jct.2017.11.004).
Several values for one entry are separate records, joined by “and”; a condition that tells them apart may be missing. Equal values may be shown once.

Conditions: Crystal, Rate of evaporation

[Ne] [neon]
Conditions | vapor or sublimation pressure [kPa]
8.004 K | 2.98e-08
8.251 K | 6.87e-08
8.502 K | 1.633e-07
8.749 K | 3.617e-07
8.792 K | 4.482e-07
8.996 K | 9.17e-07
9.046 K | 9.212e-07
9.251 K | 1.832e-06
9.468 K | 2.529e-06
9.518 K | 3.574e-06
9.727 K | 5.097e-06
9.776 K | 6.564e-06

[Xe] [xenon]
Conditions | vapor or sublimation pressure
50.01 K | 4.67e-10 kPa and 4.85e-10 kPa
51.02 K | 1.113e-09 kPa and 1.049e-09 kPa
52.02 K | 2.544e-09 kPa
52.52 K | 2.776e-09 kPa and 3.083e-09 kPa
53.02 K | 4.226e-09 kPa and 4.645e-09 kPa
53.52 K | 5.796e-09 kPa and 5.947e-09 kPa
54.02 K | 8.078e-09 kPa and 8.286e-09 kPa
54.52 K | 1.126e-08 kPa and 1.15e-08 kPa
55.02 K | 1.528e-08 kPa and 1.544e-08 kPa
55.52 K | 2.113e-08 kPa
56.02 K | 2.907e-08 kPa and 2.973e-08 kPa
56.52 K | 3.938e-08 kPa
56.53 K | 4.024e-08 kPa
57.03 K | 5.416e-08 kPa and 5.32e-08 kPa

[Kr] [krypton]
Conditions | vapor or sublimation pressure
38.5 K | 1.68e-09 kPa and 1.86e-09 kPa
39 K | 2.84e-09 kPa and 2.68e-09 kPa
39.49 K | 4.01e-09 kPa
39.5 K | 4.34e-09 kPa
39.99 K | 6.3e-09 kPa
40 K | 6.56e-09 kPa
40.49 K | 9.97e-09 kPa and 9.68e-09 kPa
41 K | 1.527e-08 kPa and 1.475e-08 kPa
41.5 K | 2.312e-08 kPa and 2.262e-08 kPa
42 K | 3.529e-08 kPa and 3.422e-08 kPa
42.5 K | 5.406e-08 kPa
42.51 K | 5.092e-08 kPa

[Ar] [argon]
Conditions | vapor or sublimation pressure
27.51 K | 1.95e-09 kPa and 1.73e-09 kPa
28.01 K | 3.29e-09 kPa and 3.3e-09 kPa
28.5 K | 5.92e-09 kPa
28.51 K | 5.83e-09 kPa
29 K | 1.028e-08 kPa
29.01 K | 1.035e-08 kPa
29.5 K | 1.808e-08 kPa
29.51 K | 1.812e-08 kPa
30 K | 3.105e-08 kPa and 3.116e-08 kPa
30.49 K | 5.189e-08 kPa
30.5 K | 5.157e-08 kPa
30.99 K | 8.27e-08 kPa
31 K | 8.469e-08 kPa

O=C=O [carbon dioxide]
Conditions | vapor or sublimation pressure
80.03 K | 7.21e-09 kPa
80.53 K | 8.98e-09 kPa and 8.61e-09 kPa
81.03 K | 1.11e-08 kPa and 1.252e-08 kPa
81.52 K | 1.416e-08 kPa and 1.56e-08 kPa
82.02 K | 1.819e-08 kPa and 1.911e-08 kPa
82.52 K | 2.353e-08 kPa and 2.519e-08 kPa
83.02 K | 2.981e-08 kPa and 3.328e-08 kPa
83.53 K | 3.967e-08 kPa and 4.446e-08 kPa
84.03 K | 5.272e-08 kPa and 5.947e-08 kPa
84.53 K | 6.988e-08 kPa and 6.758e-08 kPa

O [water]
Conditions | vapor or sublimation pressure
154.97 K | 3.289e-08 kPa and 2.922e-08 kPa
155.96 K | 4.124e-08 kPa
156.96 K | 5.337e-08 kPa
156.97 K | 6.144e-08 kPa
157.96 K | 7.108e-08 kPa
158.97 K | 9.378e-08 kPa
159.96 K | 1.174e-07 kPa
159.98 K | 1.185e-07 kPa
160.47 K | 1.414e-07 kPa
160.96 K | 1.421e-07 kPa
160.97 K | 1.636e-07 kPa
161.47 K | 1.872e-07 kPa

O=O [oxygen]
Conditions | vapor or sublimation pressure
28.99 K | 1.81e-09 kPa
29.48 K | 5.02e-09 kPa and 3.06e-09 kPa
29.98 K | 5.64e-09 kPa
29.99 K | 8.75e-09 kPa
30.47 K | 1.01e-08 kPa and 1.531e-08 kPa
30.98 K | 1.855e-08 kPa and 2.698e-08 kPa
31.48 K | 3.339e-08 kPa and 4.84e-08 kPa
31.77 K | 8.494e-08 kPa
31.98 K | 5.894e-08 kPa
32.48 K | 1.034e-07 kPa and 1.469e-07 kPa
32.98 K | 1.632e-07 kPa

N#N [nitrogen]
Conditions | vapor or sublimation pressure [kPa]
23.5 K | 1.9e-10
23.51 K | 1.5e-10
24 K | 4e-10
24.5 K | 8.2e-10
25 K | 1.66e-09
25.49 K | 3.24e-09
25.99 K | 6.63e-09
26.48 K | 1.287e-08
26.99 K | 2.45e-08
27.48 K | 3.89e-08
